Where two headings read alike, the source gives them in different places.
Experiments:
[1] = test system: GIST-T1/T670I imatinib resistant cells; test: Colony outgrowth assay, GIST-T1/T670I; assay type: cell-based
From the text: (§1) The outgrown cell colonies were stained with crystal violet and counted.

GIST T1 xenograft = GIST T1 xenograft model; assay type: in vivo, mice; settings: for mice with partial tumor regression during the dosing period / mice with complete tumor regression during the dosing period: days 10-27; for mice remaining in partial tumor regression at the end of study: end of study day 66
Procedure: The GIST T1 xenograft model was performed in compliance with all the laws, regulations and guidelines of the National Institutes of Health (NIH) and with the approval of the Animal Care and Use Committee of MI Bioresearch (Ann Arbor, MI), an AAALAC accredited facility. All mice had food and water ad libitum. […] Female Envigo nude mice (HsdCrl:Athymic Nude-NU-Foxn1nu; 6-7 weeks old) were inoculated subcutaneously just below the right high axilla with five million cells in Dulbecco's Phosphate Buffered Saline mixed with an equal volume of Matrigel, using a 27 gauge needle and syringe. When tumor burdens reached 117 mm^3 on average on day 10, mice were randomly assigned into groups such that the mean tumor burden for all groups was within 10% of the overall mean tumor burden for the study population. […] On Day 27, all animals were placed on control diet to monitor tumor regrowth. Tumor volume and body weight were measured thrice weekly. Tumor burden (mg) was estimated from caliper measurements by the formula: tumor burden (mg=mm^3)=(length×width^2)/2.

[2] = biological target: T1, human efflux transporter BCRP (Homo sapiens, UniProt Q9UNQ0); test: BCRP vesicular transport inhibition assay; assay type: biochemical
T1 construct: inside-out membrane vesicles
T1 sequence (Q9UNQ0 1-655): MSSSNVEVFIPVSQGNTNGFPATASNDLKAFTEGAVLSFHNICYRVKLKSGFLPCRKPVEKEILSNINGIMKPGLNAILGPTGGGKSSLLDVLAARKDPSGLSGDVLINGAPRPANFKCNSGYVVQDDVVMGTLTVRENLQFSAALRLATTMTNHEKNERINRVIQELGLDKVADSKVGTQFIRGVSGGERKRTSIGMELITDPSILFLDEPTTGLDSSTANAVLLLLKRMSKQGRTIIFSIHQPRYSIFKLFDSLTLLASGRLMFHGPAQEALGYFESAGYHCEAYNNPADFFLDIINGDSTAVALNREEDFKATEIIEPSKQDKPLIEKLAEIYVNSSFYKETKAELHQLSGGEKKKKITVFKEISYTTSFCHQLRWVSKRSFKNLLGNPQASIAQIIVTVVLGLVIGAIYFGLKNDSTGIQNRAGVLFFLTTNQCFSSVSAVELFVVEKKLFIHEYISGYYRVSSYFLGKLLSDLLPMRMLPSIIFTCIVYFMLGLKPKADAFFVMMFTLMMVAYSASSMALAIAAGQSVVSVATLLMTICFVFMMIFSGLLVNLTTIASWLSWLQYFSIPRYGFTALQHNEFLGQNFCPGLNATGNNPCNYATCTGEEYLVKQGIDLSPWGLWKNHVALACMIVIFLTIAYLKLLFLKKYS
Procedure: (§2) The IC50 value was estimated to be approximately 0.04 μM.

BCRP = biological target: T2, BCRP (Homo sapiens, UniProt Q9UNQ0); test: BCRP vesicular transport inhibition assay; assay type: biochemical; settings: human; 0.04 μM, lowest concentration tested; read-out: inhibition of the transport of the probe substrate of BCRP
T2 construct: inside-out membrane vesicles
T2 sequence (Q9UNQ0 1-655): T1 sequence (Q9UNQ0 1-655)
Procedure: as §2

[3] = test system: GIST-T1 (57 bp exon 11 deletion) imatinib sensitive cells; test: Colony outgrowth assay, GIST-T1; assay type: cell-based
From the text: as §1

[4] = test system: GIST-T1/D816E imatinib resistant cells; test: Colony outgrowth assay, GIST-T1/D816E; assay type: cell-based
From the text: as §1

[5] = test system: Ba/F3 cells transformed with oncogenic KIT V560D mutant; settings: 100 nM, 250 nM or 500 nM imatinib single agent
Procedure: A saturation mutagenesis study was performed in Ba/F3 cells transformed with oncogenic KIT V560D mutant. DNA nicking was induced by N-ethyl-N-nitrosourea (ENU) for 18 hours to generate additional mutations in the KIT gene or other genes in a random fashion. Assays were conducted in 6 well plates with 100 cells seeded per well. […] These cells were subjected to PCR and sequencing of the KIT gene to determine the presence of a resistant secondary mutation induced by the ENU treatment.

[6] = low dose Compound A approximately 25 mg/kg/day in diet, trametinib 0.5 mg/kg BID where combined

**Q.** How did the “GIST T1/T670I colony outgrowth” value ([1]; Compound A 100 nM or 250 nM single agents, dose dependent (FIG. 10C)) turn out when `CCn1c(=O)c(-c2cc(NC(=O)Nc3ccccc3)c(F)cc2Br)cc2cnc(NC)cc21` [Compound A, 1-[4-bromo-5-[1-ethyl-7-(methylamino)-2-oxo-1,2-dihydro-1,6-naphthyridin-3-yl]-2-fluorophenyl]-3-phenylurea] was run?
**A.** The value was 78-89 % of vehicle control.

**Q.** What about the “mice with partial tumor regression during the dosing period” value (GIST T1 xenograft; high dose Compound A approximately 100 mg/kg/day in diet) of the same compound?
**A.** Its value is 4/10.

**Q.** And the “mice with complete tumor regression during the dosing period” value (GIST T1 xenograft; high dose Compound A approximately 100 mg/kg/day in diet, trametinib 0.5 mg/kg BID where combined)?
**A.** Its value is 6/10.

**Q.** What about the “mice remaining in partial tumor regression at the end of study” value (GIST T1 xenograft; high dose Compound A approximately 100 mg/kg/day, trametinib 0.5 mg/kg BID where combined) of the same compound?
**A.** The value was 1/10.

**Q.** And the “mice with complete tumor regression during the dosing period” value (GIST T1 xenograft; [6])?
**A.** Its value is 2/10.

**Q.** What about the “mice with partial tumor regression during the dosing period” value (GIST T1 xenograft; [6]) of the same compound?
**A.** Its value is 6/10.

**Q.** What about the “mice remaining in partial tumor regression at the end of study” value (GIST T1 xenograft; low dose Compound A approximately 25 mg/kg/day, trametinib 0.5 mg/kg BID where combined) of the same compound?
**A.** Its value is 2/10.

**Q.** And the IC50 ([2]; 7 concentrations, vesicular transport inhibition, read-out: IC50, BCRP (estimated))?
**A.** Its IC50 is ~0.04 µM.

**Q.** What about the IC50 ([2]; read-out: IC50, BCRP efflux transporter) of the same compound?
**A.** Its IC50 is 0.04 µM.

**Q.** What about the inhibition at 0.04 µM (BCRP) of the same compound?
**A.** Its inhibition at 0.04 µM is 44%.

**Q.** What about the “GIST T1 colony outgrowth” value ([3]; Compound A single agents (FIG. 14A)) of the same compound?
**A.** The value was 37-41 % of vehicle control.

**Q.** And the “GIST T1/D816E colony outgrowth” value ([4]; Compound A 50 nM, 100 nM or 250 nM single agent (FIG. 14B))?
**A.** Its value is 81-93 % of vehicle control.

**Q.** With `CCn1c(=O)c(-c2cc(NC(=O)Nc3ccccc3)c(F)cc2Br)cc2cnc(N)cc21` [Compound B, 1-(5-(7-amino-1-ethyl-2-oxo-1,2-dihydro-1,6-naphthyridin-3-yl)-4-bromo-2-fluorophenyl)-3-phenylurea] as the compound, how does the “GIST T1/T670I colony outgrowth” value ([1]; Compound B 50 nM, 100 nM, 250 nM single agents (FIG. 9C)) read?
**A.** Its value is 75-78 % of vehicle control.

**Q.** What about the “GIST T1/T670I colony outgrowth” value ([1]; Compound B 100 nM or 250 nM single (FIG. 13C)) of the same compound?
**A.** Its value is 75-78 % of vehicle control.

**Q.** And the “GIST T1/T670I colony outgrowth” value ([1]; Compound B 100 nM or 250 nM single agent (FIG. 11C))?
**A.** Its value is 72-78 % of vehicle control.

**Q.** And the “reduction of GIST T1 colony outgrowth compared to vehicle control” value ([3]; Compound B single agent (FIG. 9A))?
**A.** The value was 42-54%.

**Q.** And the “GIST T1 colony outgrowth” value ([3]; Compound B single agent (FIG. 13A))?
**A.** Its value is 42-54 % of vehicle control.

**Q.** And the “GIST T1 colony outgrowth” value ([3]; each concentration of Compound B as a single agent (FIG. 11A))?
**A.** Its value is 27-31 % of vehicle control.

**Q.** What about the “GIST T1/D816E colony outgrowth” value ([4]; Compound B 50 nM, 100 nM or 250 nM single agent (FIG. 9B)) of the same compound?
**A.** The value was 59-84 % of vehicle control.

**Q.** And the “GIST T1/D816E colony outgrowth” value ([4]; Compound B 50 nM, 100 nM or 250 nM single agent (FIG. 15))?
**A.** Its value is 52-95 % of vehicle control.

**Q.** And the “GIST T1/D816E colony outgrowth” value ([4]; Compound B 100 nM or 250 nM single agent (FIG. 13B))?
**A.** The value was 58-84 % of vehicle control.

**Q.** And the “GIST T1/D816E colony outgrowth” value ([4]; Compound B 100 nM or 250 nM single agents (FIG. 11B))?
**A.** The value was 74-83 % of vehicle control.

**Q.** `Cc1ccc(NC(=O)c2ccc(CN3CCN(C)CC3)cc2)cc1Nc1nccc(-c2cccnc2)n1` [imatinib, reference compound] was tested. Which “reduction of GIST-T1/T670I colonies” value ([1]; imatinib 500 nM single agent (FIG. 10C)) did it give?
**A.** Its value is “does not show any reduction of colonies”.

**Q.** And the “outgrowth of resistant secondary KIT mutations” value [5]?
**A.** Its value is “T670I, K807E, and/or D816V imatinib-resistant secondary KIT mutants were identified”.
